The text below walks through data of ChEMBL document CHEMBL1132068, “A new class of anti-HIV agents: synthesis and activity of conjugates of HIV protease inhibitors with a reverse transcriptase inhibitor” (Bioorg Med Chem Lett, 1999).

Experiment [1] has as its target Human immunodeficiency virus type 1 protease (Human immunodeficiency virus 1) (UniProt Q72874). The experiment can be described thus: Inhibitory activity against HIV protease at a concentration of 5 uM.
Experiment [2] concerns CEM-SS. Kind of experiment: Inhibitory activity against HIV-1 IIIB in CEM-SS infected cells. The class given is functional, cell-based. The note with it: Homo sapiens.
Experiment [3] deals with CEM-SS. The experiment can be described thus: Inhibitory activity against HIV-1 IIIB in CEM-SS infected cells relative to AZT. The class given is functional, Homo sapiens.
Experiment [4] addresses Human immunodeficiency virus type 1 protease (Human immunodeficiency virus 1) (UniProt Q72874). Kind of experiment: Inhibitory activity against HIV protease at a concentration of 50 uM.
The subject of experiment [5] is MT4. The experiment can be described thus: Inhibitory activity against HIV-1 IIIB in MT-4 infected cells. The class given is functional, cell-based. Conditions: Homo sapiens; call rule not given here.
The test system of experiment [6] is CEM-SS. Kind of experiment: Inhibitory activity against HIV-1 IIIB in CEM-SS infected cells (Experiment 2). In kind it is functional, cell-based. Conditions: Homo sapiens.
Experiment [7] concerns CEM-SS. The experiment can be described thus: Inhibitory activity against HIV-1 IIIB in CEM-SS infected cells; In active. The class given is functional, cell-based, Homo sapiens.

In experiment [1], `Cc1ccccc1CNC(=O)[C@@H]1CSCN1C(=O)[C@@H](O)[C@H](Cc1ccccc1)NC(=O)CC(C)(C)C(=O)OCC1OC(n2cc(C)c(=O)[nH]c2=O)CC1N=[N+]=[N-]` (stereo partly drawn) displayed an inhibition of 11%. In experiment [2], this compound registered an EC50 of 0.0038 µM. Moreover, the “Relative Potency” value in experiment [3] worked out at 2.9.

`Cc1ccccc1CNC(=O)[C@H]1N(C(=O)[C@@H](O)[C@H](Cc2ccccc2)NC(=O)C(C)C(C)C(=O)OCC2OC(n3cc(C)c(=O)[nH]c3=O)CC2N=[N+]=[N-])CSC1(C)C` (stereo partly drawn): the inhibition came out at 96% in experiment [1] and 39% in experiment [4]. In experiment [2], this compound came in with an EC50 of 0.0073 µM. Besides, the “Relative Potency” value in experiment [3] is recorded as 1.5.

The compound `Cc1cn(C2CC(N=[N+]=[N-])C(COC(=O)C(C)C(C)C(=O)N[C@@H](Cc3ccccc3)[C@H](O)C(=O)N3CSC[C@H]3C(=O)NC(C)(C)C)O2)c(=O)[nH]c1=O` (stereo partly drawn) returned an inhibition in experiment [1] of 29%. The same compound gave a concentration for a half-maximal effect (EC50) in experiment [2] of 0.027 µM. Further, the “Relative Potency” value in experiment [3] came to 4.7.

`CC(C(=O)O)C(C)C(=O)N[C@@H](Cc1ccccc1)[C@H](O)C(=O)N1CSC(C)(C)[C@H]1C(=O)NC(C)(C)C` (stereo partly drawn): in experiment [5], the midpoint of the response, the EC50, lay at 225 µM. Also, the values for the inhibition in experiment [1] and in experiment [4] were 99% and 78%, respectively.

With `Cc1ccccc1CNC(=O)[C@H]1N(C(=O)[C@@H](O)[C@H](Cc2ccccc2)NC(=O)CC(C)(C)C(=O)OCC2OC(n3cc(C)c(=O)[nH]c3=O)CC2N=[N+]=[N-])CSC1(C)C` (stereo partly drawn), the inhibition in experiment [1] is 83%. This compound registered an EC50 in experiment [2] of 0.00024 µM. The “Relative Potency” value in experiment [3] is given as 46.

In experiment [6], `Cc1cn([C@H]2C[C@H](N=[N+]=[N-])[C@@H](CO)O2)c(=O)[nH]c1=O` [ZIDOVUDINE] showed an EC50 of 0.011 µM. Besides, the “Relative Potency” value in experiment [3] is recorded as 1.

The compound `Cc1cn(C2CC(N=[N+]=[N-])C(COC(=O)CCC(=O)N[C@@H](Cc3ccccc3)[C@H](O)C(=O)N3CSC[C@H]3C(=O)NC(C)(C)C)O2)c(=O)[nH]c1=O` (stereo partly drawn) came in with an inhibition in experiment [1] of 14%. Moreover, a half-maximal effect in experiment [2] (EC50) was put at 0.042 µM. Moreover, the “Relative Potency” value in experiment [3] turned out to be 3.

`Cc1cn(C2CC(N=[N+]=[N-])C(COC(=O)C(C)(C)CC(=O)N[C@@H](Cc3ccccc3)[C@H](O)C(=O)N3CSC(C)(C)[C@H]3C(=O)NC(C)(C)C)O2)c(=O)[nH]c1=O` (stereo partly drawn) returned an inhibition in experiment [1] of 41%. The compound further displayed a concentration giving a half-maximal response (EC50) in experiment [2] of 0.019 µM. Further, in experiment [3], the “Relative Potency” value is listed as 6.6.

`Cc1ccccc1CNC(=O)[C@@H]1CSCN1C(=O)[C@@H](O)[C@H](Cc1ccccc1)NC(=O)CC(C)(C)C(=O)O` returned an inhibition in experiment [1] of 87%.

Consider `CC(C)(C)NC(=O)[C@@H]1CSCN1C(=O)[C@@H](O)[C@H](Cc1ccccc1)NC(=O)CCC(=O)O`, for which the inhibition in experiment [1] amounted to 74%.

As for `CC(C)(C)NC(=O)[C@@H]1CSCN1C(=O)[C@@H](O)[C@H](Cc1ccccc1)NC(=O)CC(C)(C)C(=O)O`, the concentration giving a half-maximal response (EC50) in experiment [5] is above 2000 µM. Also, the inhibition worked out at 93% in experiment [1] and 20% in experiment [4].

`Cc1ccccc1CNC(=O)[C@@H]1CSCN1C(=O)[C@@H](O)[C@H](Cc1ccccc1)NC(=O)C(C)C(C)C(=O)OCC1OC(n2cc(C)c(=O)[nH]c2=O)CC1N=[N+]=[N-]` (stereo partly drawn) yielded an inhibition in experiment [1] of 57%. In experiment [2], it took 0.0089 µM to reach a half-maximal effect (EC50). In experiment [3], the “Relative Potency” value is recorded as 1.2.

`Cc1ccccc1CNC(=O)[C@H]1N(C(=O)[C@@H](O)[C@H](Cc2ccccc2)NC(=O)CC(C)(C)C(=O)O)CSC1(C)C`: the inhibition in experiment [1] was 100%; in experiment [4] it was 78%. Also, in experiment [7], the EC50 result is given as “Not Active”.

In experiment [1], `Cc1cn(C2CC(N=[N+]=[N-])C(COC(=O)C(C)(C)CC(=O)N[C@@H](Cc3ccccc3)[C@H](O)C(=O)N3CSC[C@H]3C(=O)NC(C)(C)C)O2)c(=O)[nH]c1=O` (stereo partly drawn) registered an inhibition of 9%. This compound also showed a concentration giving a half-maximal response (EC50) in experiment [2] of 0.027 µM. For the same compound, the “Relative Potency” value in experiment [3] came out at 4.7.

In experiment [5], `CC(C(=O)O)C(C)C(=O)N[C@@H](Cc1ccccc1)[C@H](O)C(=O)N1CSC[C@H]1C(=O)NC(C)(C)C` (stereo partly drawn) displayed an EC50 above 2000 µM. Further, the inhibition in experiment [1] amounted to 97%; in experiment [4], 32%.

For the compound `CSC[C@H](NC(=O)COc1cccc2cnccc12)C(=O)N[C@@H](Cc1ccccc1)[C@H](O)C(=O)N1CSC[C@H]1C(=O)NC(C)(C)C`, the EC50 in experiment [5] was 0.00057 µM; in experiment [2], 0.04 µM. Moreover, the inhibition in experiment [1] is 100%.

In experiment [1], `Cc1cn(C2CC(N=[N+]=[N-])C(COC(=O)C(C)C(C)C(=O)N[C@@H](Cc3ccccc3)[C@H](O)C(=O)N3CSC(C)(C)[C@H]3C(=O)NC(C)(C)C)O2)c(=O)[nH]c1=O` (stereo partly drawn) displayed an inhibition of 69%. This compound also yielded a concentration giving a half-maximal response (EC50) in experiment [2] of 0.09 µM. Besides, the “Relative Potency” value in experiment [3] is reported as 1.4.

For the compound `Cc1ccccc1CNC(=O)[C@H]1N(C(=O)[C@@H](O)[C@H](Cc2ccccc2)NC(=O)C(C)C(C)C(=O)O)CSC1(C)C` (stereo partly drawn), the inhibition amounted to 100% in experiment [1] and 76% in experiment [4].

`Cc1ccccc1CNC(=O)[C@@H]1CSCN1C(=O)[C@@H](O)[C@H](Cc1ccccc1)NC(=O)C(C)C(C)C(=O)O` (stereo partly drawn) gave an inhibition in experiment [1] of 88%.

Take `CC(C)(C)NC(=O)[C@H]1N(C(=O)[C@@H](O)[C@H](Cc2ccccc2)NC(=O)CC(C)(C)C(=O)O)CSC1(C)C`: the half-maximal effective concentration (EC50) in experiment [5] came out at 52 µM. For the same compound, the inhibition in experiment [1] is 99%; in experiment [4], 76%.
